Test results taken from US20230074209A1, “METHOD AND DEVICE FOR PROVIDING DRUG RECOMMENDATION” (Cancerfree biotech Ltd., priority 2021, published 2023).

Legend:
[1] = test system: patient's CTC-derived organoid cultures; experiment: Drug sensitivity assay of CTC-derived organoid cultures (CellTiter Glo ATP, relative cell viability); assay type: cell-based, human; conditions: for CTC sensitivity profiling: CTCs of patient; for relative cell viability: CTC-derived organoid cultures of patient, one week co-culture
Description: In some embodiments, first, a liquid biopsy of the patient is obtained, and CTCs are then isolated from the liquid biopsy, and the CTCs are then expanded to obtain the CTC-derived organoid cultures. The liquid biopsy is, for example, a blood sample, such as a peripheral venous blood sample. In one example, the CTCs were isolated from the liquid biopsy, and the biomimetic cell culture system was then used to expand the CTCs in vitro to form the CTC-derived organoid cultures. In one example, Ficoll-Paque centrifugation was used to isolate peripheral blood mononuclear cells (PBMCs) containing the CTCs from the blood sample. The cells were then seeded onto a substrate of binary colloidal crystal (BCC) containing silica and polymethyl methacrylate (PMMA), and cultured in the biomimetic cell culture system for three weeks, with replacement of culture medium every four days. The expansion of the organoid cultures could be monitored by optical microscopy, and the presence of the CTCs could be confirmed by EpCAM and CD45 immunofluorescence staining. The CTC-derived organoid cultures were positive for EpCAM and negative for CD45 in the immunofluorescence staining
In one example, the CTC-derived organoid cultures were resuspended in a culture medium, and then divided into aliquots and loaded to 96-well plates for drug sensitivity assays. The aliquots were divided into a control group (not reacted with a drug) and drug test groups (respectively reacted with different drugs). For advanced pancreatic ductal adenocarcinoma, gemcitabine, 5-fluorouracil (5-FU), erlotinib, irinotecan, olaparib, oxaliplatin, paclitaxel, palbociclib and trametinib were selected as candidate drugs and tested against the CTC-derived organoid cultures at concentrations according to the clinical pharmacokinetics of each of the drugs, in order to mimic the effect of a clinical dose in patients. Different drug treatments were respectively added to each of the wells in the 96-well plates, after which cultures were continued to co-culture for one week. At the end of the assay period, viable cell counts were measured using cytosolic adenosine triphosphate (ATP) abundance (CellTiter Glo, Promega, Madison Wis., USA) via a luminometer (Promega). The relative cell viabilities of the CTC-derived organoid cultures respectively corresponding to the 9 candidate drugs were calculated by the formula: relative cell viability=(viable cell counts of the drug test group/viable cell counts of the control group)×100%. Lower cell viability following application of test treatments was indicative of greater drug sensitivity and better anti-tumor effect. However, the present disclosure is not limited to the above example, and other test methods or calculation methods can be used to obtain the relative cell viabilities.

[2] = test system: pancreatic cancer; experiment: Clinical course of individual pancreatic cancer patients under treatment; assay type: in vivo, human; conditions: patient
Description: In one example, clinical response to treatment in patients was evaluated using Response Evaluation Criteria in Solid Tumors (RECIST) version 1.1 criteria.

[3] = locally advanced pancreatic cancer
[4] = August 2019, 12 cycles of chemotherapy plus radiotherapy 44 Gy/20 Fx

Q: For O=c1[nH]cc(F)c(=O)[nH]1 [5-FU, 5-fluorouracil], which CTC sensitivity profiling [1, 3] is on record?
A: The CTC sensitivity profiling was “resistance”.

Q: How did the relative cell viability ([1]; locally advanced pancreatic cancer, clinical-PK concentration) turn out when C#Cc1cccc(Nc2ncnc3cc(OCCOC)c(OCCOC)cc23)c1 [erlotinib] was run?
A: The relative cell viability was 27.8%.

Q: With CCc1c2c(nc3ccc(OC(=O)N4CCC(N5CCCCC5)CC4)cc13)-c1cc3c(c(=O)n1C2)COC(=O)[C@]3(O)CC [irinotecan] as the molecule, how does the CTC sensitivity profiling [1, 3] read?
A: Its CTC sensitivity profiling is “resistance”.

Q: For O=C(c1cc(Cc2n[nH]c(=O)c3ccccc23)ccc1F)N1CCN(C(=O)C2CC2)CC1 [olaparib], which relative cell viability ([1]; metastatic pancreatic cancer) is on record?
A: Its relative cell viability is 16.7%.

Q: Which CTC sensitivity profiling [1, 3] does the source give for O=C1[O][Pt]2([NH][C@@H]3CCCC[C@H]3[NH]2)[O]C1=O [oxaliplatin] here?
A: Its CTC sensitivity profiling is “resistance”.

Q: How did the CTC sensitivity profiling [1, 3] turn out when CC(=O)O[C@H]1C(=O)[C@@]2(C)[C@H]([C@H](OC(=O)c3ccccc3)[C@]3(O)C[C@H](OC(=O)[C@H](O)[C@@H](NC(=O)c4ccccc4)c4ccccc4)C(C)=C1C3(C)C)[C@]1(OC(C)=O)CO[C@@H]1C[C@@H]2O [paclitaxel] was run?
A: The CTC sensitivity profiling was “resistance”.

Q: What does the source list for FOLFIRINOX?
A: abdominal CT scan response, liver metastases [2, 4]: partial response (PR); abdominal CT scan response, pancreatic mass [2, 4]: stable disease (SD); follow-up CT scan response, pancreatic tumor ([2]; November 2019, with liver, bone and peritoneal seeding): progressive disease (PD)
